Laboratory results as given in ChEMBL document CHEMBL1781985, “Carbonic anhydrase inhibitors. Phenacetyl-, pyridylacetyl- and thienylacetyl-substituted aromatic sulfonamides act as potent and selective isoform VII inhibitors” (Bioorg Med Chem Lett, 2009).
pKi: −log10 of the molar value.

How the values were obtained:
Carbonic anhydrase 1 = Carbonic anhydrase 1 (Homo sapiens, UniProt P00915)
Carbonic anhydrase 2 = Carbonic anhydrase 2 (Homo sapiens, UniProt P00918)
Carbonic anhydrase 7 = Carbonic anhydrase 7 (Homo sapiens, UniProt P43166)
Carbonic anhydrase 7, sequence (P43166 whole entry): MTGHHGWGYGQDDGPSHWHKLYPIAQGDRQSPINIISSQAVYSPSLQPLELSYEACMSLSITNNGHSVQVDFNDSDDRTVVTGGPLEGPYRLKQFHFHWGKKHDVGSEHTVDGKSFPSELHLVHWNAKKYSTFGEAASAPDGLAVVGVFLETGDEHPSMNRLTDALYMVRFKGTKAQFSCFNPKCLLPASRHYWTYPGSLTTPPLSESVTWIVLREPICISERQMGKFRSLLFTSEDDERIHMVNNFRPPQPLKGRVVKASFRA

Carbonic anhydrase 1, sequence (P00915 whole entry): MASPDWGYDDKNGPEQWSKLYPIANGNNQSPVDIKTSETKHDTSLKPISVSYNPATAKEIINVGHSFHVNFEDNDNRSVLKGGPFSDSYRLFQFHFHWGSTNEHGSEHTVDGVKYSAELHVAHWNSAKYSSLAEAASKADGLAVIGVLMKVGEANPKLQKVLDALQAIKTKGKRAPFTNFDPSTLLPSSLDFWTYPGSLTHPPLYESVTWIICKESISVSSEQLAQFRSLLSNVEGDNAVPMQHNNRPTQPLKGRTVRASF

| SMILES | pKi (Carbonic anhydrase 1) | pKi (Carbonic anhydrase 2) | pKi (Carbonic anhydrase 7) |
| --- | --- | --- | --- |
| NS(=O)(=O)c1ccc(NC(=O)Cc2cccs2)cc1 | 7.21 | 7.30 | 8.21 |
| NS(=O)(=O)c1ccc(CNC(=O)Cc2cccs2)cc1 | 7.22 | 7.28 | 8.15 |
| NS(=O)(=O)c1ccc(NC(=O)Cc2ccccc2)cc1 | 6.97 | 6.97 | 8.33 |
| NS(=O)(=O)c1ccc(CCNC(=O)Cc2cccs2)cc1 | 7.17 | 7.28 | 8.12 |
